Measured values taken from PubChem BioAssay AID1963844 (Molecular Pharmacology Branch, DTP, NCI, 2024).

System: 422866-222-R5-J1-PDC complex spheroid viability
Experiment: Anticancer human tumor 422866-222-R5-J1-PDC patient-derived pancreatic adenocarcinoma cell line growth inhibition [POLQ]
Settings: for IC50: curve of first compound; for viability, T/C: stronger effect = lower value
How it was run: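 PDC + HUVEC + MSC complex spheroids; POLQ inhibitors ± partner drugs; top conc. at/near clinical Cmax, else 10 microM (SN-38 1 microM), half-log dilutions; 37 degrees C, 5% CO2.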

[1] = second compound 0.0316 µM, first compound 0.0316 µM
[2] = second compound 0.0316 µM, first compound 0.1 µM
[3] = second compound 0.0316 µM, first compound 0.316 µM
[4] = second compound 0.0316 µM, first compound 1 µM
[5] = second compound 0.0316 µM, first compound 3.16 µM
[6] = second compound 0.0316 µM, first compound 10 µM
[7] = second compound 0.1 µM, first compound 0.0316 µM
[8] = second compound 0.1 µM, first compound 0.1 µM
[9] = second compound 0.1 µM, first compound 0.316 µM
[10] = second compound 0.1 µM, first compound 1 µM
[11] = second compound 0.1 µM, first compound 3.16 µM
[12] = second compound 0.1 µM, first compound 10 µM
[13] = second compound 0.316 µM, first compound 0.0316 µM
[14] = second compound 0.316 µM, first compound 0.1 µM
[15] = second compound 0.316 µM, first compound 0.316 µM
[16] = second compound 0.316 µM, first compound 1 µM
[17] = second compound 0.316 µM, first compound 3.16 µM
[18] = second compound 0.316 µM, first compound 10 µM
[19] = second compound 1 µM, first compound 0.0316 µM
[20] = second compound 1 µM, first compound 0.1 µM
[21] = second compound 1 µM, first compound 0.316 µM
[22] = second compound 1 µM, first compound 1 µM
[23] = second compound 1 µM, first compound 3.16 µM
[24] = second compound 1 µM, first compound 10 µM
[25] = second compound 3.16 µM, first compound 0.0316 µM
[26] = second compound 3.16 µM, first compound 0.1 µM
[27] = second compound 3.16 µM, first compound 0.316 µM
[28] = second compound 3.16 µM, first compound 1 µM
[29] = second compound 3.16 µM, first compound 3.16 µM
[30] = second compound 3.16 µM, first compound 10 µM
[31] = second compound 10 µM, first compound 0.0316 µM
[32] = second compound 10 µM, first compound 0.1 µM
[33] = second compound 10 µM, first compound 0.316 µM
[34] = second compound 10 µM, first compound 1 µM
[35] = second compound 10 µM, first compound 3.16 µM
[36] = second compound 10 µM, first compound 10 µM
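Further: spheroids exposed to compounds for one week before readout.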
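Wherever viability, T/C is given: percent of DMSO vehicle wells luminescence so 100% = untreated viability.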

For C#Cc1c(F)ccc2cc(O)cc(-c3ncc4c(N5CC6CCC(C5)N6)nc(OCC56CCCN5CC(F)C6)nc4c3F)c12 (stereo unspecified) + COC1C(OC(N)=O)C(O)C(Oc2ccc3c(O)c(NC(=O)c4ccc(O)c(CC=C(C)C)c4)c(=O)oc3c2C)OC1(C)C, the IC50 (second compound 0.0316 µM) was 715 nM, the IC50 (second compound 0.1 µM) was 780 nM and the IC50 (second compound 0.316 µM) was 750 nM. It also gave an IC50 (second compound 1 µM) of 859 nM, an IC50 (second compound 3.16 µM) of 664 nM and an IC50 (second compound 10 µM) of 810 nM. It also gave a viability, T/C [1] of 95.7%, a viability, T/C [2] of 78.9% and a viability, T/C [3] of 59.6%. The viability, T/C [4] was 46.2%, the viability, T/C [5] was 35.9% and the viability, T/C [6] was 29.8%. It also gave a viability, T/C [7] of 92.5%, a viability, T/C [8] of 86.3% and a viability, T/C [9] of 66.5%. For the same compound, the viability, T/C [10] was 46.1%, the viability, T/C [11] was 34.2% and the viability, T/C [12] was 32.8%. The viability, T/C [13] was 99.5%, the viability, T/C [14] was 85.8% and the viability, T/C [15] was 66.2%. The viability, T/C [16] was 45.2%, the viability, T/C [17] was 31.4% and the viability, T/C [18] was 28.8%. For the same compound, the viability, T/C [19] was 106%, the viability, T/C [20] was 102% and the viability, T/C [21] was 73.4%. For the same compound, the viability, T/C [22] was 46.9%, the viability, T/C [23] was 37% and the viability, T/C [24] was 32%. For the same compound, the viability, T/C [25] was 93.3%, the viability, T/C [26] was 93.9% and the viability, T/C [27] was 67.1%. For the same compound, the viability, T/C [28] was 40.9%, the viability, T/C [29] was 36.9% and the viability, T/C [30] was 30.3%. The viability, T/C [31] was 96.1%, the viability, T/C [32] was 86.1% and the viability, T/C [33] was 64.7%. For the same compound, the viability, T/C [34] was 47.6%, the viability, T/C [35] was 33.7% and the viability, T/C [36] was 29.4%.

C=CC(=O)N1CCN(c2nc(=O)n(-c3c(C)ccnc3C(C)C)c3nc(-c4c(O)cccc4F)c(F)cc23)C(C)C1 (stereo unspecified) + COC1C(OC(N)=O)C(O)C(Oc2ccc3c(O)c(NC(=O)c4ccc(O)c(CC=C(C)C)c4)c(=O)oc3c2C)OC1(C)C was tested, and the IC50 (second compound 0.0316 µM) was less than 31.6 nM, the IC50 (second compound 0.1 µM) was less than 31.6 nM and the IC50 (second compound 0.316 µM) was less than 31.6 nM. For the same compound, the IC50 (second compound 1 µM) was less than 31.6 nM, the IC50 (second compound 3.16 µM) was less than 31.6 nM and the IC50 (second compound 10 µM) was less than 31.6 nM. It also gave a viability, T/C [1] of 33.4%, a viability, T/C [2] of 26.7% and a viability, T/C [3] of 29%. For the same compound, the viability, T/C [4] was 22.4%, the viability, T/C [5] was 28% and the viability, T/C [6] was 33%. It also gave a viability, T/C [7] of 32.8%, a viability, T/C [8] of 28.9% and a viability, T/C [9] of 23.3%. For the same compound, the viability, T/C [10] was 23.7%, the viability, T/C [11] was 23.2% and the viability, T/C [12] was 27.1%. The viability, T/C [13] was 29.9%, the viability, T/C [14] was 25.1% and the viability, T/C [15] was 24.3%. The viability, T/C [16] was 21%, the viability, T/C [17] was 24.4% and the viability, T/C [18] was 28.7%. The viability, T/C [19] was 34.4%, the viability, T/C [20] was 30.6% and the viability, T/C [21] was 28.4%. It also gave a viability, T/C [22] of 28.4%, a viability, T/C [23] of 20.8% and a viability, T/C [24] of 25.6%. The viability, T/C [25] was 31.3%, the viability, T/C [26] was 27.1% and the viability, T/C [27] was 28.3%. For the same compound, the viability, T/C [28] was 23.7%, the viability, T/C [29] was 28.2% and the viability, T/C [30] was 29.3%. The viability, T/C [31] was 32.2%, the viability, T/C [32] was 26.8% and the viability, T/C [33] was 30%. For the same compound, the viability, T/C [34] was 22.9%, the viability, T/C [35] was 25.4% and the viability, T/C [36] was 28.6%.

In the case of CC(C)n1c(=O)n(C)c2cnc3cc(F)c(-c4ccc(OCCCN5CCCCC5)nc4)cc3c21 + COC1C(OC(N)=O)C(O)C(Oc2ccc3c(O)c(NC(=O)c4ccc(O)c(CC=C(C)C)c4)c(=O)oc3c2C)OC1(C)C, the IC50 (second compound 0.0316 µM) is reported as less than 31.6 nM, the IC50 (second compound 0.1 µM) is reported as less than 31.6 nM and the IC50 (second compound 0.316 µM) is reported as less than 31.6 nM. For the same compound, the IC50 (second compound 1 µM) was less than 31.6 nM, the IC50 (second compound 3.16 µM) was less than 31.6 nM and the IC50 (second compound 10 µM) was less than 31.6 nM. It also gave a viability, T/C [1] of 40.7%, a viability, T/C [2] of 36.1% and a viability, T/C [3] of 34.5%. The viability, T/C [4] was 38.5%, the viability, T/C [5] was 39.4% and the viability, T/C [6] was 37.2%. For the same compound, the viability, T/C [7] was 42.6%, the viability, T/C [8] was 38.5% and the viability, T/C [9] was 39.1%. The viability, T/C [10] was 37.8%, the viability, T/C [11] was 36.9% and the viability, T/C [12] was 36.2%. It also gave a viability, T/C [13] of 40.6%, a viability, T/C [14] of 36.1% and a viability, T/C [15] of 42.4%. It also gave a viability, T/C [16] of 44.7%, a viability, T/C [17] of 34% and a viability, T/C [18] of 30.2%. The viability, T/C [19] was 34.6%, the viability, T/C [20] was 45.8% and the viability, T/C [21] was 37.2%. The viability, T/C [22] was 38.6%, the viability, T/C [23] was 39.2% and the viability, T/C [24] was 32.1%. For the same compound, the viability, T/C [25] was 44%, the viability, T/C [26] was 40% and the viability, T/C [27] was 42.3%. For the same compound, the viability, T/C [28] was 33.4%, the viability, T/C [29] was 35.4% and the viability, T/C [30] was 39.6%. It also gave a viability, T/C [31] of 39.1%, a viability, T/C [32] of 39% and a viability, T/C [33] of 38.8%. The viability, T/C [34] was 43.4%, the viability, T/C [35] was 35.2% and the viability, T/C [36] was 32.6%.
